In one data set the test system is human colon crypts. The experiment in a line: Screening of reagents for optimization of human intestinal organoids culture (plating efficiency). Type of data set: cell-based.
The subject of another data set is human colon organoids. The experiment in a line: Long-term culture of human colon organoids (culture period, passages). Type of data set: cell-based. Conditions: nicotinamide 10 mM, WENR + gastrin.
Data set [1] concerns human intestinal organoids. The data set can be described thus: Differentiation and proliferation of human intestinal organoids. Type of data set: cell-based. Conditions: human organoids after withdrawal of Wnt.
The test system of a further data set is liver organoids. The experiment in a line: Liver organoid expansion with PGE2 or arachidonic acid. The data set is classed as cell-based, human. Conditions: for Number and size of liver organoids versus basal medium alone: PGE2 50 nM or AA 10 ug/ml.
The subject of data set [2] is colon and liver organoids. The experiment in a line: GSK3 inhibitor as Wnt replacement in organoid culture media. Conditions: replacement for Wnt. The data set is classed as cell-based.
Setting [3] is: Second screening (WENR + gastrin + Nicotinamide).

Like-named read-outs stand apart in the source and are kept apart here.

As for LIF: growth factor (Millipore), the “Activity (plating efficiency compared with control after 4 days culture)” value in the data set on human colon crypts (First screening (WENR)) stood at 0.
Consider `Oc1c2ccccc2c2c3c(cccc13)N=N2` [SP600125], for which the “Activity (plating efficiency compared with control after 4 days culture)” value with human colon crypts (setting [3]) amounted to 0.
Consider `NC(=O)c1cccnc1` [Nicotinamide], for which the “Activity (plating efficiency compared with control after 4 days culture)” value in the data set with human colon crypts (First screening (WENR)) is 3+ (3+ = >100% increase). For the same molecule, the “Prolongation of culture period” value in the data set on human colon organoids is recorded as “essential for prolongation of culture period beyond the initial 7 days”. Besides, in data set [1], the “Goblet and enteroendocrine cell differentiation” value is listed as “strongly inhibited this differentiation”.
As for “Exendin4: GLP1 analog; a 39 amino acid peptide”, the “Activity (plating efficiency compared with control after 4 days culture)” value in the data set with human colon crypts (First screening (WENR)) worked out at 0.
With `Nc1ncn([C@@H]2O[C@H](CO)[C@@H](O)[C@H]2O)c(=O)n1` [5 Azacytidin], the “Activity (plating efficiency compared with control after 4 days culture)” value in the data set on human colon crypts (setting [3]) is given as 1− (1− = 0-50%).
Turning to `C[C@@H](N)[C@H]1CC[C@H](C(=O)Nc2ccncc2)CC1.Cl.Cl.O` [Y27632, R-(+)-trans-4-(1-aminoethyl)-N-(4-Pyridyl)cyclohexanecarboxamide dihydrochloride monohydrate], in the data set with human colon crypts, the “Activity (plating efficiency compared with control after 4 days culture)” value was 1+ (key: 0 = no change; 1+ = <50% increase; 2+ = 50-100% increase; 3+ = >100% increase; 1− = 0-50%; 2− = 50-100% decrease; 3− = >100% decrease) and the “Organoid morphology note in Activity column” value is “cystic”.
On to `CC(/C=C/C(=O)NO)=C\[C@@H](C)C(=O)c1ccc(N(C)C)cc1` [TSA], for which the “Result: CYP3AII” value with liver organoid cultures is listed as “−”.
As for `c1cc(-c2cnn3cc(-c4ccc(OCCN5CCCCC5)cc4)cnc23)ccn1` [Dorsomorphin], the “Activity (plating efficiency compared with control after 4 days culture)” value with human colon crypts (setting [3]) is on record as 0.
As for `CCCCC[C@H](O)/C=C/[C@H]1[C@H](O)CC(=O)[C@@H]1C/C=C\CCCC(=O)O` [PGE2, prostaglandin E2], the “Activity (plating efficiency compared with control after 4 days culture)” value with human colon crypts (First screening (WENR)) was 1+ (1+ = <50% increase). For the same molecule, the “Culturing time without growth reduction” value in the data set with liver organoids (5 fold expansion per week, 5 weeks without PGE2) is listed as “at least 8 weeks”. In the data set with liver organoids, the “Number and size of liver organoids versus basal medium alone” value is “greater number of larger organoids”.
As for `Cc1nc2sccn2c(=O)c1CCN1CCC(=C(c2ccccc2)c2ccc(F)cc2)CC1` [R 59022], the “Result: CYP3AII” value in the data set on liver organoid cultures is on record as “+”.
Take FGF2: growth factor (Peprotech): the “Activity (plating efficiency compared with control after 4 days culture)” value with human colon crypts (First screening (WENR)) is 0.
Turning to `Cc1ccc(C(=O)Cn2c3c(sc2=N)CCCC3)cc1` [Pifithrin-α], the “Activity (plating efficiency compared with control after 4 days culture)” value with human colon crypts (setting [3]) worked out at 0.
With `C[C@]12CCC(=O)C=C1CC[C@@H]1[C@@H]2[C@@H](O)C[C@@]2(C)[C@H]1CC[C@]2(O)C(=O)CO` [Hydrocortison], the “Activity (plating efficiency compared with control after 4 days culture)” value in the data set on human colon crypts (First screening (WENR)) was determined as 0.
For the molecule `COc1cc2nc(N3CCCN(C)CC3)nc(NC3CCN(Cc4ccccc4)CC3)c2cc1OC` [BIX01294], in the data set with human colon crypts (setting [3]), the “Activity (plating efficiency compared with control after 4 days culture)” value is 1− (1− = 0-50%).
On the same count and under the same terms, with `O.O.O.O=C(O)c1ncccc1O.O=C(O)c1ncccc1O.[O]=[V]` [VO-OHpic trihydrate] the figure was 3− (3− = >100% decrease).
Consider Cholera Toxin, for which the “Activity (plating efficiency compared with control after 4 days culture)” value with human colon crypts is 1+ (key: 0 = no change; 1+ = <50% increase; 2+ = 50-100% increase; 3+ = >100% increase; 1− = 0-50%; 2− = 50-100% decrease; 3− = >100% decrease).
In the case of `O=C1O[C@H]([C@@H](O)CO)C(O)=C1O` [L-Ascorbic acid], in the data set on human colon crypts (First screening (WENR)), the “Activity (plating efficiency compared with control after 4 days culture)” value is recorded as 0.
For the molecule `Oc1ccc(-c2nc(-c3ccc(F)cc3)c(-c3ccncc3)[nH]2)cc1` [SB-202190, 4-[4-(4-Fluorophenyl)-5-(4-pyridinyl)-1H-imidazol-2-yl]phenol], in data set [1], the “Goblet and enteroendocrine cell differentiation” value was “strongly inhibited this differentiation”.
For the molecule `O=C(O)/C=C(/CCc1ccc(Cl)cc1)c1ccccc1` [PS48], the “Activity (plating efficiency compared with control after 4 days culture)” value in the data set on human colon crypts (setting [3]) is reported as 0.
For `COc1cccc(-c2cc(=O)c3ccccc3o2)c1N` [PD98059], the “Activity (plating efficiency compared with control after 4 days culture)” value in the data set on human colon crypts (setting [3]) is 1− (1− = 0-50%).
On to `Cc1c[nH]c(-c2cnc(NCCNc3ccc(C#N)cn3)nc2-c2ccc(Cl)cc2Cl)n1` [CHIR99021], for which the “Wnt agonist activity in the culture media” value in data set [2] is reported as “effective Wnt agonist”.
On to `C[C@H](NC(=O)Cc1cc(F)cc(F)c1)C(=O)N[C@H](C(=O)OC(C)(C)C)c1ccccc1` [DAPT], for which the Maximal concentration efficiency in the data set on liver organoid cultures (titration, hepatocyte marker expression) is 10 µM.
`CCCCC/C=C\C/C=C\C/C=C\C/C=C\CCCC(=O)O` [AA, Arachidonic acid]: the “Number and size of liver organoids versus basal medium alone” value in the data set on liver organoids is recorded as “greater number of larger organoids”.
